Results from ChEMBL document CHEMBL5344403, “Discovery and evaluation of phenacrylanilide derivatives as novel potential anti-liver fibrosis agents” (Eur J Med Chem, 2022).
Activity calls are given as the source filed them. The calls are words filed in the database; no cut-off is given here.

How the values were obtained:
[1] = Antiproliferative activity against human LX2 cells assessed as cell survival rate at 20 uM incubated for 72 hrs by CCK-8 assay; type: toxicity, cell-based; details: LX-2 cells, read-out: Activity
LX-2 [2] = assay: Inhibition of TGF-beta1-induced human LX2 activation at 20 uM pretreated with TGF-beta1 for 1 hr followed by compound addition and measured after 72 hrs by CCK-8 assay relative to control; type: functional
LX-2 [3] = assay: Antifibrotic activity against TGF-beta1 induced human LX2 cells assessed as reduction of alpha-SMA expression at 20 uM pretreated with TGF-beta1 for 1 hr followed by compound addition and measured after 24 hrs by Western blot analysis; type: functional, cell-based
LX-2 [4] = assay: Antifibrotic activity against TGF-beta1 induced human LX2 cells assessed as reduction of fibronectin expression at 20 uM pretreated with TGF-beta1 for 1 hr followed by compound addition and measured after 24 hrs by Western blot analysis; type: functional, cell-based
[5] = Antiproliferative activity against human LO2 cells assessed as inhibition of cell growth incubated for 72 hrs by CCK-8 assay; type: toxicity, cell-based; details: LO2 (L02) cells
LX-2 [6] = assay: Effect on alpha-SMA protein level in TGF-beta1-induced human LX2 cells at 20 uM pretreated with TGF-beta1 for 1 hr followed by compound addition and measured after 24 hrs by Western blot analysis; type: functional, cell-based
LX-2 [7] = assay: Downregulation of fibronectin mRNA expression in TGF-beta1-induced human LX2 cells at 20 uM pretreated with TGF-beta1 for 1 hr followed by compound addition and measured after 24 hrs by qRT-PCR analysis; type: functional, cell-based
LX-2 [8] = assay: Downregulation of alpha-SMA mRNA expression in TGF-beta1-induced human LX2 cells at 20 uM pretreated with TGF-beta1 for 1 hr followed by compound addition and measured after 24 hrs by qRT-PCR analysis; type: functional, cell-based
LX-2 [9] = assay: Effect on fibronectin protein level in TGF-beta1-induced human LX2 cells at 20 uM pretreated with TGF-beta1 for 1 hr followed by compound addition and measured after 24 hrs by Western blot analysis; type: functional, cell-based
LX-2 [10] = assay: […] of alpha-SMA mRNA expression in TGF-beta1-induced human LX2 cells at 20 uM pretreated with TGF-beta1 for 1 hr followed by compound addition and measured after 24 hrs by qRT-PCR analysis; type: functional, cell-based
Mus musculus [11] = assay: Antifibrotic activity against CCL4-induced C57BL/6J mouse hepatic fibrosis model assessed as reduction in CD69/CD8 in […] cell cells at 30 mg/kg, po measured for 3 weeks by flow cytometry analysis relative to control; type: functional; design: scale not given: the % may be the effect or the level left
Mus musculus [12] = assay: Antifibrotic activity against CCL4-induced C57BL/6J mouse hepatic fibrosis model assessed as reduction in CD11b/Gr-1 in MDSC cells at 30 mg/kg, po measured for 3 weeks by flow cytometry analysis relative to control; type: functional; design: scale not given: the % may be the effect or the level left
[13] = Toxicity in CCL4-induced po dosed C57BL/6J mouse assessed as inflammatory cell infiltration in heart at 15 to 30 mg/kg, po by H and E staining based analysis; type: organism-based; details: in vivo, dose 15-30 mg/kg
[14] = Toxicity in CCL4-induced po dosed C57BL/6J mouse assessed as inflammatory cell infiltration in lung at 15 to 30 mg/kg, po by H and E staining based analysis; type: organism-based; details: in vivo, dose 15-30 mg/kg
Mus musculus [15] = assay: Antifibrotic activity against CCL4-induced C57BL/6J mouse hepatic fibrosis model assessed as reduction in CD69/CD4 in Th1 cell cells at 30 mg/kg, po measured for 3 weeks by flow cytometry analysis relative to control; type: functional; design: scale not given: the % may be the effect or the level left
Mus musculus [16] = assay: Antifibrotic activity against CCL4-induced C57BL/6J mouse hepatic fibrosis model assessed as reduction in F4/80+CD11b+ in macrophage at 30 mg/kg, po measured for 3 weeks by flow cytometry analysis relative to control; type: functional; design: scale not given: the % may be the effect or the level left
[17] = Toxicity in CCL4-induced po dosed C57BL/6J mouse assessed as inflammatory cell infiltration in spleen at 15 to 30 mg/kg, po by H and E staining based analysis; type: organism-based; details: in vivo, dose 15-30 mg/kg

SMILES: COc1ccc(CCC(=O)Nc2cccc(C(=O)NC3CCCC3)c2)cc1OC
- viability at 72 h, 20 µM [1]: 71.7%
- inhibition at 20 µM (LX-2 [2]): 13.8%

SMILES: CNC(=O)c1ccc(NC(=O)/C=C/c2ccc(OC)c(OC)c2)cc1
- viability at 72 h, 20 µM [1]: 79.5%
- inhibition at 20 µM (LX-2 [2]): 24%

SMILES: COc1ccc(/C=C/C(=O)Nc2ccc(C(=O)NC3CC3)cc2)cc1OC
- viability at 72 h, 20 µM [1]: 74.3%
- inhibition at 20 µM (LX-2 [2]): 24.5%

SMILES: COc1ccc(/C=C/C(=O)Nc2ccc(C(=O)O)nc2)cc1OC
- viability at 72 h, 20 µM [1]: 98%
- inhibition at 20 µM (LX-2 [2]): 14%

SMILES: CNC(=O)c1cccc(NC(=O)/C=C/c2ccc(OC)c(OC)c2)c1
- viability at 72 h, 20 µM [1]: 79.7%
- inhibition at 20 µM (LX-2 [2]): 28.5%

SMILES: CNC(=O)c1ccccc1NC(=O)/C=C/c1ccc(OC)c(OC)c1
- viability at 72 h, 20 µM [1]: 67%
- inhibition at 20 µM (LX-2 [2]): 13%

SMILES: COc1ccc(/C=C/C(=O)Nc2ccc(C(=O)NC3CCC3)cc2)cc1OC
- viability at 72 h, 20 µM [1]: 68.3%
- inhibition at 20 µM (LX-2 [2]): 27%

SMILES: COc1ccc(/C=C/C(=O)Nc2ccc(C(=O)NC3CCCC3)cc2)cc1OC
- viability at 72 h, 20 µM [1]: 46%
- Activity (LX-2 [3]): Active
- Activity (LX-2 [4]): Active
- IC50 at 72 h [5]: 13.3 µM
- inhibition at 20 µM (LX-2 [2]): 48.3%

SMILES: COc1cccc(/C=C/C(=O)Nc2cccc(C(=O)NC3CCCC3)c2)c1
- viability at 72 h, 20 µM [1]: 56%
- inhibition at 20 µM (LX-2 [2]): 25.3%

SMILES: COc1ccc(CCC(=O)Nc2ccc(C(=O)NC3CCCC3)cc2)cc1OC
- viability at 72 h, 20 µM [1]: 71.7%
- inhibition at 20 µM (LX-2 [2]): 3%

SMILES: COc1ccccc1/C=C/C(=O)Nc1ccc(C(=O)NC2CCCC2)cc1
- Activity (LX-2 [6]): inactive
- viability at 72 h, 20 µM [1]: 70.8%
- Activity (LX-2 [7]): Active
- Activity (LX-2 [8]): Active
- Activity (LX-2 [9]): inactive
- inhibition at 20 µM (LX-2 [2]): 70.3%

SMILES: COc1ccc(/C=C/C(=O)Nc2cccc(C(=O)NC3CCC3)c2)cc1OC
- viability at 72 h, 20 µM [1]: 60%
- inhibition at 20 µM (LX-2 [2]): 31.7%

SMILES: COc1ccc(/C=C/C(=O)Nc2ccccc2C(=O)NC2CCCCC2)cc1OC
- viability at 72 h, 20 µM [1]: 45.3%
- inhibition at 20 µM (LX-2 [2]): 20%

SMILES: COc1ccc(/C=C/C(=O)Nc2cccc(C(=O)NC3CCCCC3)c2)cc1OC
- viability at 72 h, 20 µM [1]: 39.8%
- inhibition at 20 µM (LX-2 [2]): 49.6%

SMILES: COc1ccc(/C=C/C(=O)Nc2ccc(C(=O)NC3CCNC3)nc2)cc1OC (stereo not given)
- viability at 72 h, 20 µM [1]: 76.5%
- inhibition at 20 µM (LX-2 [2]): 19.5%

SMILES: COc1ccc(/C=C/C(=O)Nc2ccc(C(=O)NC3CCNC3)cc2)cc1OC (stereo not given)
- viability at 72 h, 20 µM [1]: 80.3%
- inhibition at 20 µM (LX-2 [2]): 17%

SMILES: COc1ccc(/C=C/C(=O)Nc2ccc(C(=O)NC3CCCC3)cc2)cc1O
- viability at 72 h, 20 µM [1]: 66.3%
- inhibition at 20 µM (LX-2 [2]): 29.5%

SMILES: COc1ccc(/C=C/C(=O)Nc2ccccc2C(=O)NC2CC2)cc1OC
- viability at 72 h, 20 µM [1]: 71.5%
- inhibition at 20 µM (LX-2 [2]): 1.5%

SMILES: COc1ccc(/C=C/C(=O)Nc2ccc(C(=O)NC3CCCCC3)cc2)cc1OC
- viability at 72 h, 20 µM [1]: 81.3%
- inhibition at 20 µM (LX-2 [2]): 14%

SMILES: COc1ccc(OC)c(/C=C/C(=O)Nc2ccc(C(=O)NC3CCCC3)cc2)c1
- viability at 72 h, 20 µM [1]: 63%
- inhibition at 20 µM (LX-2 [2]): 26.3%

SMILES: COc1ccc(/C=C/C(=O)Nc2ccccc2C(=O)N2CCCCC2)cc1OC
- viability at 72 h, 20 µM [1]: 88.7%
- inhibition at 20 µM (LX-2 [2]): 13%

SMILES: COc1ccc(/C=C/C(=O)Nc2ccc(C(=O)NC3CCCC3)cc2)cc1
- viability at 72 h, 20 µM [1]: 50.3%
- inhibition at 20 µM (LX-2 [2]): 32%

SMILES: COc1ccc(/C=C/C(=O)Nc2ccc(C(=O)NC3CCCC3)nc2)cc1OC
- viability at 72 h, 20 µM [1]: 64.5%
- Activity (LX-2 [10]): Active
- inhibition at 20 µM (LX-2 [2]): 41%

SMILES: COc1cccc(/C=C/C(=O)Nc2ccc(C(=O)NC3CCCC3)cc2)c1
- viability at 72 h, 20 µM [1]: 70.8%
- inhibition at 20 µM (LX-2 [2]): 19%

SMILES: COc1ccc(/C=C/C(=O)Nc2ccc(C(=O)N3CCCCC3)cc2)cc1OC
- viability at 72 h, 20 µM [1]: 74%
- inhibition at 20 µM (LX-2 [2]): 29.5%

SMILES: COc1ccc(/C=C/C(=O)Nc2ccccc2C(=O)NC2CCC2)cc1OC
- viability at 72 h, 20 µM [1]: 71%
- inhibition at 20 µM (LX-2 [2]): 19%

SMILES: COc1cc(/C=C/C(=O)Nc2ccc(C(=O)NC3CCCC3)cc2)cc(OC)c1
- viability at 72 h, 20 µM [1]: 69.7%
- Activity (LX-2 [3]): Active
- Activity (LX-2 [4]): Active
- IC50 at 72 h [5]: 17.3 µM
- inhibition at 20 µM (LX-2 [2]): 36.7%

SMILES: COc1ccccc1/C=C/C(=O)Nc1cccc(C(=O)NC2CCCC2)c1
- viability at 72 h, 20 µM [1]: 66%
- inhibition at 20 µM (LX-2 [2]): 17.3%

SMILES: COc1cccc(/C=C/C(=O)Nc2ccc(C(=O)NC3CCCC3)cc2)c1OC
- viability at 72 h, 20 µM [1]: 77%
- inhibition at 20 µM (LX-2 [2]): 17.3%

SMILES: COc1ccc(/C=C/C(=O)Nc2cccc(C(=O)NC3CC3)c2)cc1OC
- viability at 72 h, 20 µM [1]: 65.3%
- inhibition at 20 µM (LX-2 [2]): 30%

SMILES: O=C(/C=C/c1ccc2c(c1)OCO2)Nc1ccc(C(=O)NC2CCCC2)cc1
- viability at 72 h, 20 µM [1]: 78%
- inhibition at 20 µM (LX-2 [2]): 22%

SMILES: O=C(/C=C/c1ccc2c(c1)OCCO2)Nc1ccc(C(=O)NC2CCCC2)cc1
- viability at 72 h, 20 µM [1]: 69.3%
- inhibition at 20 µM (LX-2 [2]): 18%

SMILES: COc1ccc(/C=C/C(=O)Nc2cccc(C(=O)O)c2)cc1OC
- viability at 72 h, 20 µM [1]: 79.3%
- inhibition at 20 µM (LX-2 [2]): 26%

SMILES: COc1ccc(/C=C/C(=O)Nc2ccccc2C(=O)NC2CCCC2)cc1OC
- viability at 72 h, 20 µM [1]: 88%
- inhibition at 20 µM (LX-2 [2]): 27%

SMILES: COc1ccc(/C=C/C(=O)Nc2ccc(C(=O)O)cc2)cc1OC
- viability at 72 h, 20 µM [1]: 81.5%
- inhibition at 20 µM (LX-2 [2]): 31%

SMILES: COc1ccc(/C=C/C(=O)Nc2cccc(C(=O)NC3CCCC3)c2)cc1OC
- viability at 72 h, 20 µM [1]: 44.3%
- Activity (LX-2 [3]): Active
- Activity (LX-2 [4]): Active
- IC50 at 72 h [5]: 8.4 µM
- inhibition at 20 µM (LX-2 [2]): 53.8%

SMILES: Cc1cc(C)cc(/C=C/C(=O)Nc2ccc(C(=O)NC3CCCC3)cc2)c1
- viability at 72 h, 20 µM [1]: 80.5%
- inhibition at 20 µM (LX-2 [2]): 3%

SMILES: COc1ccc(/C=C/C(=O)Nc2cccc(C(=O)N3CCCCC3)c2)cc1OC
- viability at 72 h, 20 µM [1]: 68.8%
- inhibition at 20 µM (LX-2 [2]): 17.7%

SMILES: COc1ccc(/C=C/C(=O)Nc2ccccc2C(=O)O)cc1OC [TRANILAST]
- viability at 72 h, 20 µM [1]: 80%
- Activity (Mus musculus [11]): 1.92%
- Activity (Mus musculus [12]): 2.87%
- Activity [13]: Non-Toxic
- Activity [14]: Non-Toxic
- Activity (Mus musculus [15]): 1.66%
- IC50 at 72 h [5]: 82.3 µM
- Activity (Mus musculus [16]): 5.09%
- inhibition at 20 µM (LX-2 [2]): 17.5%
- Activity [17]: Non-Toxic
